The source of these data is US20060003016A1, “Therapeutic method for endolymphatic hydrops associated diseases” (priority 2004, published 2006).

The experiment relates to patients with Meniere's disease and endolymphatic hydrops associated diseases. In words: Clinical course of vertigo, aural fullness, tinnitus and hearing in clinical cases. It is filed as in vivo, patient. The text has this:
Therapeutic method of our invention is always performed after general examinations and standard laboratory examinations, such as blood pressure, plasma electrolytes, and urine osmolality. After consideration of body weight, age, sex, and life style, we directed the patients to take adequate water (see below) every day in combination with short-term application with isosorbite®. During the initial stage of the water intake method, recommended volume of water intake for adult male, weighing 60 kg, is calculated as 1.8-2.1 l per day according to the following formula (F 1). […] They seem to be nervous and live under the very strong psychological pressure.
The present invention is explained in detail by mentioning clinical cases.

Where [1] appears, read: case 1, water intake 2 lit./day continued, up to March 2004.

In the case of `O` [water intake, water], the right hearing result under setting [1] is “within normal range”. The rotatory vertigo result under setting [1] is given as “no rotatory vertigo was noted”; the rotatory vertigo result (case 2, water intake 1.5 lit./day from Feb. 21, 2003 in addition to isosorbide 21 g/dose and difenidol hydrochloride 25 mg/dose on demand) is “remitted after May 3, 2003”; the rotatory vertigo entry (case 3, water intake, up to January 2004, except one attack Mar. 16, 2001) was “no rotatory vertigo was recognized”; the rotatory vertigo entry (case 5, water intake 1.5 lit./day) is “could not be recognized after Oct. 24, 2002”; the rotatory vertigo result (case 8, water intake, during the progress after the initial examination) was “No rotatory vertigo could be recognized”. Moreover, for the setting “case 2, water intake 1.5 lit./day in addition to isosorbide and difenidol hydrochloride on demand”, the “resound or aural fullness (in the right ear)” value is listed as “remitted after Aug. 18, 2003”. For the same compound, the hearing level result (case 2, water intake 1.5 lit./day in addition to isosorbide and difenidol hydrochloride on demand, to February 2004) is reported as “maintained within normal range”. The hearing result (case 3, water intake, up to January 2004) is on record as “maintained within normal range”. Besides, where the note is “case 4, water intake 1.5 lit./day, October 2003 to January 2004”, the “hearing of the right low tone” value was “maintained improved state”. Besides, where the note is “case 5, water intake 1.5 lit./day plus isosorbide 63 g t.d.s. and adenosine triphosphate 300 mg t.d.s for 2 weeks”, the “high frequency sensorineural hearing loss of the left ear” value is recorded as “improved in Oct. 24, 2002”. Also, the “low frequency sensorineural hearing loss of the left ear” value is listed as “improved from Nov. 29, 2002” (case 5, water intake 1.5 lit./day plus isosorbide and adenosine triphosphate for 2 weeks); “improved” (case 7, water intake 300 ml before going to sleep in addition to steroid, VB12 and PGE1). Besides, the “left hearing compared with right hearing” value (case 5, water intake 1.5 lit./day, from Jul. 18, 2003) is “became equal level to the right hearing”. The left ear tinnitus entry (case 5, water intake 1.5 lit./day, to January 2004) was “gradually remitted”. Besides, the “rotatory vertiginous attack accompanied by tinnitus” value (case 6, water intake with isosorbide and difenidol hydrochloride on demand, after Dec. 21, 2001 until February 2004) is reported as “no rotary vertiginous attack”. Under “case 7, water intake continued (1.5 lit./day after September 2002), until now”, the left hearing entry is reported as “maintained the improved state”. Besides, the “right hearing level lower as compared with the left hearing level in all frequency range” value (case 8, water intake, at present, 2 -25 dB at initial examination) is on record as 5 -15 dB. Further, the “outcome of most of patients with Meniere's disease” value (water intake method in combination with short-term isosorbide) is given as “improved without re-attack for 1-2 years”.
